Consider eight compounds from patent publication US11208387B2, “Macrocyclic broad spectrum antibiotics” (Genentech, Inc., priority 2019, dated 2021).

Common to all, as to test: Serum MIC, broth micro-dilution
What all share (assay type): cell-based
(In general: Broth dilution looks for growth in wells or tubes with falling amounts of substance.)

Experiment [1] has as its system Acinetobacter baumannii ATCC 17978. The settings on record: Acinetobacter baumannii. How it is done:
(§1) In vitro antimicrobial activity of each compound was determined by measuring minimal inhibitor concentrations (MICs) using the broth micro-dilution technique as approved by the Clinical and Laboratory Standards Institute (CLSI) (Methods for Dilution Antimicrobial Susceptibility Tests for Bacteria that Grow Aerobically; Approved Standard—Eighth Edition. CLSI document M07-A8. Wayne, Pa.: Clinical and Laboratory Standards; 2009). Antibacterial activity was measure against Escherichia coli strain ATCC 25922 (E. coli), Klebsiella pneumoniae ATCC 700603 (K. pneumoniae), Acinetobacter baumannii ATCC 17978 (A. baumannii), and Pseudomonas aeruginosa PA01 (P. aeruginosa), each of which is representative of a clinically relevant Gram-negative species. Cells were inoculated onto plates of Mueller Hinton Agar and grown at 37° C. for 16-18 hours. Inocula suspensions were prepared by scraping cells into 1 mL of testing media (Mueller Hinton II cation adjusted Broth) and diluting to a final OD 600 nm of 0.01.
(§2) Test compounds were prepared in DMSO at a concentration of […]. The compounds were tested under several different dilution formats. In protocol 1, the compound stocks were diluted into testing media at a concentration of 64 μg/ml and serial 2-fold dilutions were made in the same media, in 96-well U bottom microtiter dishes, for a total of 10 compound concentrations. In protocol 2, the compound stocks were diluted into testing media at a concentration of 4 μg/mL and serial 2-fold dilutions were made in the same media, in 96-well U bottom microtiter dishes, for a total of 10 compound concentrations. In protocol 3, compound stocks were diluted into testing media at a concentration of 0.5 μg/mL, with serial 2-fold dilutions conducted as described above. In protocol 4, compound stocks were diluted into testing media at a concentration of 0.13 μg/mL, with serial 2-fold dilutions conducted as described above. Inocula suspensions were added to the 2-fold serial dilutions of test compounds to a final density of OD 600 nm of 0.0005 and incubated at 35° C. for 22 hours. […] To assess antimicrobial activity in the presence of plasma proteins, MICs were also determined in growth media supplemented with 50% serum. Bacterial inocula and test compound dilution plates were prepared using the same protocol as described above for the standard MICs assay, with the exception that a mixture of 50% v/v Mueller Hinton II cation adjusted Broth and 50% v/v mouse sterile filtered serum (Equitech-Bio) was used in place of 100% Mueller Hinton II cation adjusted Broth. The results are listed in Table 3 (MIC, IC50 values micromolar).

Experiment [2] concerns Escherichia coli strain ATCC 25922. The settings on record: Escherichia coli, read-out: E. coli 25922 Serum MIC. How it is done:
as §1, §2

For experiment [3], the system named is Klebsiella pneumoniae ATCC 700603. The following applies: Klebsiella pneumoniae, read-out: K pneumoniae 700603 Serum MIC. As for the experimental part: as §1, §2
Experiment [4] concerns Pseudomonas aeruginosa PA01. The following applies: Pseudomonas aeruginosa, read-out: P. aeruginosa 01 Serum MIC. As for the experimental part: as §1, §2
Where [5] appears, read: ATCC17978, 50% v/v mouse serum in Mueller Hinton II cation adjusted Broth, 35° C., 22 hours, Table 4, read-out: A. baumanii 17978 Serum MIC.
Where [6] appears, read: ATCC17978, 50% v/v mouse serum in Mueller Hinton II cation adjusted Broth, 35° C., 22 hours, Table 5, read-out: Acinetobacter baumanii 17978 Serum MIC.
Where [7] appears, read: ATCC25922, 50% v/v mouse serum in Mueller Hinton II cation adjusted Broth, 35° C., 22 hours, Table 4.
Where [8] appears, read: ATCC700603, 50% v/v mouse serum in Mueller Hinton II cation adjusted Broth, 35° C., 22 hours, Table 4.
The mark [9] stands for this setting: PA01, 50% v/v mouse serum in Mueller Hinton II cation adjusted Broth, 35° C., 22 hours, Table 4.
Where [10] appears, read: ATCC17978, 22 h, read-out: A. baumanii 17978 Serum MIC.
The mark [11] stands for this setting: ATCC17978, 22 h, read-out: Acinetobacter baumanii 17978 Serum MIC.

The structures appear in SMILES notation. In brackets after ≈: the same amount, converted by molar mass. Where two headings read alike, the source gives them in different places.

Turning to `C[C@@H]1NC(=O)[C@@H](N(C)C(=O)[C@H](CNS(N)(=O)=O)NC(=O)c2cnn(-c3ccc(OC4CCCCC4)cc3)c(=O)c2)c2cc(OC[C@H](O)CN)c(O)c(c2)-c2cc(ccc2OC[C@H](O)CN)C[C@@H](C(=O)O)NC1=O` [Example 9, (8S,11S,14S)-18-hydroxy-11-methyl-14-[methyl-[(2S)-2-[[1-[4-(cyclohexoxy)-phenyl]-6-oxo-pyridazine-4-carbonyl]amino]-3-(sulfamoylamino)-propanoyl]amino]-10,13-dioxo-3,17-bis[(2R)-3-amino-2-hydroxy-propoxy]-9,12-diazatricyclo-[13.3.1.12,6]icosa-1(18),2(20),3,5,15(19), 16-hexaene-8-carboxylic acid], the MIC in experiment [1] (setting [5]) worked out at 32 µM (≈ 33.2 µg/mL); in experiment [1] (setting [6]), 32 µM (≈ 33.2 µg/mL); in experiment [2] (setting [7]), 6 µM (≈ 6.22 µg/mL); in experiment [3] (setting [8]), 1.5 µM (≈ 1.56 µg/mL); in experiment [4] (setting [9]), 32 µM (≈ 33.2 µg/mL).
`Cc1nc(-c2ccc(C(F)(F)C(C)C)cc2)ncc1C(=O)N[C@@H](CNS(N)(=O)=O)C(=O)N(C)[C@@H]1C(=O)N[C@@H](C)C(=O)N[C@H](C(=O)O)Cc2ccc(OC[C@H](O)CN)c(c2)-c2cc1cc(OC[C@H](O)CN)c2O` [Example 10, (8S,11S,14S)-18-hydroxy-11-methyl-14-[methyl-[(2S)-2-[[2-[4-(1,1-difluoro-2-methyl-propyl)-phenyl]-4-methyl-pyrimidine-5-carbonyl]amino]-3-(sulfamoylamino)-propanoyl]amino]-10,13-dioxo-3,17-bis[(2R)-3-amino-2-hydroxy-propoxy]-9,12-diazatricyclo-[13.3.1.12,6]icosa-1(18),2(20),3,5,13(19), 16-hexaene-8-carboxylic acid]: the MIC in experiment [1] (setting [5]) was 32 µM (≈ 32.9 µg/mL); in experiment [1] (setting [6]), 32 µM (≈ 32.9 µg/mL); in experiment [2] (setting [7]) it was 0.5 µM (≈ 0.515 µg/mL); in experiment [3] (setting [8]), 1 µM (≈ 1.03 µg/mL); in experiment [4] (setting [9]) it was 32 µM (≈ 32.9 µg/mL).
As to `C[C@@H]1NC(=O)[C@@H](N(C)C(=O)[C@H](CNS(N)(=O)=O)NC(=O)c2ncc(-c3ccc(C(C)(C)C)cc3)nc2N)c2cc(OC[C@H](O)CN)c(O)c(c2)-c2cc(ccc2OC[C@H](O)CN)C[C@@H](C(=O)O)NC1=O` [Example 11, (8S,11S,14S)-18-hydroxy-11-methyl-14-[methyl-[(2S)-2-[[3-amino-5-(4-tert-butylphenyl)pyrazine-2-carbonyl]amino]-3-(sulfamoylamino)-propanoyl]amino]-10,13-dioxo-3,17-bis[(2R)-3-amino-2-hydroxy-propoxy]-9,12-diazatricyclo-[13.3.1.12,6]icosa-1(18),2(20),3,5,15(19), 16-hexaene-8-carboxylic acid], the MIC in experiment [1] (setting [10]) was found to be 16 µM (≈ 15.9 µg/mL); in experiment [1] (setting [11]), 16 µM (≈ 15.9 µg/mL); in experiment [2] (ATCC25922, 22 h), 4 µM (≈ 3.98 µg/mL); in experiment [3] (ATCC700603, 22 h), 4 µM (≈ 3.98 µg/mL); in experiment [4] (PA01, 22 h), 64 µM (≈ 63.6 µg/mL).
With `Cc1nc(N2CCC(C(C)(C)C)CC2)nc(N)c1C(=O)N[C@@H](CNS(N)(=O)=O)C(=O)N(C)[C@@H]1C(=O)N[C@@H](C)C(=O)N[C@H](C(=O)O)Cc2ccc(OC[C@H](O)CN)c(c2)-c2cc1cc(OC[C@H](O)CN)c2O` [Example 12, (8S,11S,14S)-18-hydroxy-11-methyl-14-[methyl-[(2S)-2-[[4-amino-2-(4-tert-butyl-1-piperidyl)-6-methyl-pyrimidine-5-carbonyl]amino]-3-(sulfamoylamino)-propanoyl]amino]-10,13-dioxo-3,17-bis[(2R)-3-amino-2-hydroxy-propoxy]-9,12-diazatricyclo-[13.3.1.12,6]icosa-1(18),2(20),3,5,15(19), 16-hexaene-8-carboxylic acid], the MIC in experiment [1] (setting [5]) was found to be 16 µM (≈ 16.2 µg/mL); in experiment [1] (setting [6]) it was 16 µM (≈ 16.2 µg/mL); in experiment [2] (setting [7]), 2 µM (≈ 2.03 µg/mL); in experiment [3] (setting [8]), 3 µM (≈ 3.05 µg/mL); in experiment [4] (setting [9]), 16 µM (≈ 16.2 µg/mL).
Turning to `Cc1nc(-c2ccc(OC(C)C)cc2)nc(C)c1C(=O)N[C@@H](CNS(N)(=O)=O)C(=O)N(C)[C@@H]1C(=O)N[C@@H](C)C(=O)N[C@H](C(=O)O)Cc2ccc(OC[C@H](O)CN)c(c2)-c2cc1cc(OC[C@H](O)CN)c2O` [Example 13, (8S,11S,14S)-18-hydroxy-11-methyl-14-[methyl-[(2S)-2-[[2-(4-isopropoxy-phenyl)-4,6-dimethyl-pyrimidine-5-carbonyl]amino]-3-(sulfamoylamino)-propanoyl]amino]-10,13-dioxo-3,17-bis[(2R)-3-amino-2-hydroxy-propoxy]-9,12-diazatricyclo-[13.3.1.12,6]icosa-1(18),2(20),3,5,15(19), 16-hexaene-8-carboxylic acid], the MIC in experiment [1] (setting [10]) turned out to be 32 µM (≈ 32.3 µg/mL); in experiment [1] (setting [11]) it was 32 µM (≈ 32.3 µg/mL); in experiment [2] (ATCC25922, 22 h), 1.5 µM (≈ 1.51 µg/mL); in experiment [3] (ATCC700603, 22 h) it was 1.5 µM (≈ 1.51 µg/mL); in experiment [4] (PA01, 22 h), 24 µM (≈ 24.2 µg/mL).
For the compound `Cc1nc(-c2ccc(OC(C)C)cc2)ncc1C(=O)N[C@@H](CNS(N)(=O)=O)C(=O)N(C)[C@@H]1C(=O)N[C@@H](C)C(=O)N[C@H](C(=O)O)Cc2ccc(OC[C@H](O)CN)c(c2)-c2cc1cc(OC[C@H](O)CN)c2O` [Example 14, (8S,11S,14S)-18-hydroxy-11-methyl-14-[methyl-[(2S)-2-[[2-(4-isopropoxy-phenyl)-4-methyl-pyrimidine-5-carbonyl]amino]-3-(sulfamoylamino)-propanoyl]amino]-10,13-dioxo-3,17-bis[(2R)-3-amino-2-hydroxy-propoxy]-9,12-diazatricyclo-[13.3.1.12,6]icosa-1(18),2(20),3,5,15(19), 16-hexaene-8-carboxylic acid], the MIC amounted to 32 µM (≈ 31.8 µg/mL) in experiment [1] (setting [10]); 32 µM (≈ 31.8 µg/mL) in experiment [1] (setting [11]); 1.5 µM (≈ 1.49 µg/mL) in experiment [2] (ATCC25922, 22 h); 2 µM (≈ 1.99 µg/mL) in experiment [3] (ATCC700603, 22 h); 48 µM (≈ 47.8 µg/mL) in experiment [4] (PA01, 22 h).
`Cc1nc(-c2ccc(C3(C)CC3)cc2)nc(C)c1C(=O)N[C@@H](CNS(N)(=O)=O)C(=O)N(C)[C@@H]1C(=O)N[C@@H](C)C(=O)N[C@H](C(=O)O)Cc2ccc(OC[C@H](O)CN)c(c2)-c2cc1cc(OC[C@H](O)CN)c2O` [Example 15, (8S,11S,14S)-18-hydroxy-11-methyl-14-[methyl-[(2S)-2-[[4,6-dimethyl-2-[4-(1-methylcyclo-propyl)phenyl]-pyrimidine-5-carbonyl]amino]-3-(sulfamoylamino)-propanoyl]amino]-10,13-dioxo-3,17-bis[(2R)-3-amino-2-hydroxy-propoxy]-9,12-diazatricyclo-[13.3.1.12,6]icosa-1(18),2(20),3,5,15(19), 16-hexaene-8-carboxylic acid]: the MIC in experiment [1] (setting [5]) came to 8 µM (≈ 8.04 µg/mL); in experiment [1] (setting [6]) it was 8 µM (≈ 8.04 µg/mL); in experiment [2] (setting [7]), 0.5 µM (≈ 0.503 µg/mL); in experiment [3] (setting [8]) it was 0.5 µM (≈ 0.503 µg/mL); in experiment [4] (setting [9]) it was 8 µM (≈ 8.04 µg/mL).
Take `C[C@@H]1NC(=O)[C@@H](N(C)C(=O)[C@H](CCN)NC(=O)c2cnn(-c3ccc(C(C)(C)C)cc3)c(=O)c2)c2cc(OC[C@H](O)CN)c(O)c(c2)-c2cc(ccc2OC[C@H](O)CN)C[C@@H](C(=O)O)NC1=O` [Example 17, (8S,11S,14S)-18-hydroxy-11-methyl-14-[methyl-[(2S)-4-amino-2-[[1-(4-tert-butylphenyl)-6-oxo-pyridazine-4-carbonyl]amino]-butanoyl]amino]-10,13-dioxo-3,17-bis[(2R)-3-amino-2-hydroxy-propoxy]-9,12-diazatricyclo-[13.3.1.12,6]icosa-1(18),2(20),3,5,15(19), 16-hexaene-8-carboxylic acid]: the MIC came out at 16 µM (≈ 14.9 µg/mL) in experiment [1] (setting [10]); 16 µM (≈ 14.9 µg/mL) in experiment [1] (setting [11]); 1 µM (≈ 0.93 µg/mL) in experiment [2] (ATCC25922, 22 h); 1 µM (≈ 0.93 µg/mL) in experiment [3] (ATCC700603, 22 h); 64 µM (≈ 59.5 µg/mL) in experiment [4] (PA01, 22 h).

A word on the MIC: it is the lowest concentration found to suppress growth.
